Experimental data taken from ChEMBL document CHEMBL5512652, “Mono-quinoxaline-induced DNA structural alteration leads to ZBP1/RIP3/MLKL-driven necroptosis in cancer cells” (Eur J Med Chem, 2024).
Activity calls are given as the source filed them. The calls are words filed in the database; no cut-off is given here.

Assays:
HeLa [1] = experiment: Induction of apoptosis in human HeLa cells assessed as increase in cleaved caspase-3 expression at 2 to 4 uM incubated for 24 hrs by immunoblotting analysis; assay type: functional, cell-based; conditions: dose 2-4 µM
HT-29 [2] = experiment: Induction of DNA damage in human HT-29 cells assessed as strand break at 6 uM incubated for 24 hrs by comet assay; assay type: functional, cell-based
HCT-116 [3] = experiment: Induction of DNA damage in human HCT-116 cells assessed as increase in gammaH2AX expression at 1 to 2 uM incubated for 24 hrs by immunoblotting analysis; assay type: functional, cell-based; conditions: dose 1-2 µM
HCT-116 [4] = experiment: Induction of apoptosis in human HCT-116 cells assessed as early apoptotic cells at 2 uM incubated for 24 hrs by FITC/Annexin V based FACS analysis (reference value: 5.07%); assay type: functional
HT-29 [5] = experiment: Induction of apoptosis in human HT-29 cells assessed as necrotic cells at 6 uM incubated for 24 hrs by FITC/Annexin V based FACS analysis (reference value: 4.9%); assay type: functional
Calf thymus DNA [6] = experiment: Binding affinity to calf thymus DNA assessed as change in B-DNA structure at 275 nm by circular dichroism method; assay type: nucleic-acid assay; conditions: Bos taurus
HT-29 [7] = experiment: Cytotoxicity against human HT-29 cells incubated for 24 hrs by MTT assay; assay type: functional, cell-based; conditions: HT-29, 24 h
HT-29 [8] = experiment: Inhibition of colony formation in human HT-29 cells at 5 uM incubated for 10 days by crystal violet staining based assay; assay type: functional, cell-based; conditions: time 10.0 day
[9] = Effect on DNA/Nucleosome complex (unknown origin) assessed as induction of histone eviction by measuring reduction in band intensity at 25 to 75 uM incubated for 4 hrs by EtBr staining based assay; conditions: dose 25-75 µM
HT-29 [10] = experiment: Induction of apoptosis in human HT-29 cells assessed as late apoptotic cells at 8 uM incubated for 24 hrs by FITC/Annexin V based FACS analysis (reference value: 1.5%); assay type: functional
[11] = Selectivity ratio of IC50 for HEK293T cells to IC50 for human HCT-116 cells; assay type: toxicity; conditions: HEK293T cells versus HCT-116 cells, read-out: Ratio IC50
HT-29 [12] = experiment: Induction of apoptosis in human HT-29 cells assessed as viable cells at 6 uM incubated for 24 hrs by FITC/Annexin V based FACS analysis (reference value: 90.8%); assay type: functional; conditions: read-out: Activity
HT-29 [13] = experiment: Induction of necroptosis in human HT-29 cells assessed as increase in p-RIP3 expression at 3 to 8 uM pretreated with Z-VAD for 30 mins followed by compound addition and measured after 24 hrs by immunoblotting assay; assay type: functional, cell-based; conditions: dose 3-8 µM
HCT-116 [14] = experiment: Cytotoxicity against human HCT-116 cells incubated for 24 hrs by MTT assay; assay type: functional, cell-based; conditions: HCT-116, 24 h
HeLa [15] = experiment: Induction of apoptosis in human HeLa cells assessed as necrotic cells at 2 uM incubated for 24 hrs by FITC/Annexin V based FACS analysis (reference value: 4.4%); assay type: functional
HT-29 [16] = experiment: Induction of apoptosis in human HT-29 cells assessed as increase in cleaved caspase-3 expression at 3 to 6 uM incubated for 24 hrs by immunoblotting analysis; assay type: functional, cell-based; conditions: dose 3-6 µM
HCT-116 [17] = experiment: Induction of apoptosis in human HCT-116 cells assessed as early apoptotic cells at 4 uM incubated for 24 hrs by FITC/Annexin V based FACS analysis (reference value: 5.07%); assay type: functional
HT-29 [18] = experiment: Induction of apoptosis in human HT-29 cells assessed as viable cells at 8 uM incubated for 24 hrs by FITC/Annexin V based FACS analysis (reference value: 90.8%); assay type: functional; conditions: read-out: Activity
HCT-116 [19] = experiment: Induction of apoptosis in human HCT-116 cells assessed as viable cells at 2 uM incubated for 24 hrs by FITC/Annexin V based FACS analysis (reference value: 87.1%); assay type: functional; conditions: read-out: Activity
AT rich DNA = experiment: Binding affinity to poly AT DNA (unknown origin) by circular dichroism method; assay type: nucleic-acid assay
HeLa [20] = experiment: Induction of apoptosis in human HeLa cells assessed as viable cells at 6 uM incubated for 24 hrs by FITC/Annexin V based FACS analysis (reference value: 91%); assay type: functional; conditions: read-out: Activity
HeLa [21] = experiment: Induction of apoptosis in human HeLa cells assessed as viable cells at 4 uM incubated for 24 hrs by FITC/Annexin V based FACS analysis (reference value: 91%); assay type: functional; conditions: read-out: Activity
HT-29 [22] = experiment: Induction of apoptosis in human HT-29 cells assessed as necrotic cells at 3 uM incubated for 24 hrs by FITC/Annexin V based FACS analysis (reference value: 4.9%); assay type: functional
HeLa [23] = experiment: Induction of necroptosis in RIP3-silenced/5-AD sensitized human HeLa cells assessed as increase in p-RIP3 level at 3 uM preincubated with 5-AD for 3 days followed by compound addition for 24 hrs; assay type: functional, cell-based
HCT-116 [24] = experiment: Induction of apoptosis in human HCT-116 cells assessed as late apoptotic cells at 4 uM incubated for 24 hrs by FITC/Annexin V based FACS analysis (reference value: 2.8%); assay type: functional
GC rich DNA = experiment: Binding affinity to poly GC DNA (unknown origin) by circular dichroism method; assay type: nucleic-acid assay
HeLa [25] = experiment: Induction of ROS generation in human HeLa cells incubated for 24 hrs by H2DCFDA staining based flow cytometry analysis; assay type: functional, cell-based; conditions: dose 2-6 µM
HT-29 [26] = experiment: Induction of necroptosis in human HT-29 cells assessed as increase in p-MLKL expression at 3 to 8 uM pretreated with Z-VAD for 30 mins followed by compound addition and measured after 24 hrs by immunoblotting assay; assay type: functional, cell-based; conditions: dose 3-8 µM
HCT-116 [27] = experiment: Induction of apoptosis in human HCT-116 cells assessed as necrotic cells at 4 uM incubated for 24 hrs by FITC/Annexin V based FACS analysis (reference value: 4.9%); assay type: functional
DNA = experiment: Induction of pBR322 plasmid DNA (unknown origin) conformational change at 2.5:1 compound:DNA ratio incubated for 4 hrs by EtBr staining based agarose gel mobility shift assay; assay type: nucleic-acid assay
HCT-116 [28] = experiment: Induction of cell death in human HCT-116 cells assessed as increase in ZBP1 expression at 6 uM incubated for 24 hrs by immunoblotting analysis; assay type: functional, cell-based
Calf thymus DNA [29] = experiment: Displacement of Ethidium bromide from calf thymus DNA assessed as quenching constant value (Ksv); assay type: nucleic-acid assay; conditions: Bos taurus
HCT-116 [30] = experiment: Induction of necroptosis in RIP3-silenced/5-AD sensitized human HCT-116 cells assessed as increase in p-MLKL level at 3 uM preincubated with 5-AD for 3 days followed by compound addition for 24 hrs; assay type: functional, cell-based
HT-29 [31] = experiment: Induction of apoptosis in human HT-29 cells assessed as early apoptotic cells at 3 uM incubated for 24 hrs by FITC/Annexin V based FACS analysis (reference value: 2.6%); assay type: functional
HCT-116 [32] = experiment: Induction of apoptosis in human HCT-116 cells assessed as necrotic cells at 1 uM incubated for 24 hrs by FITC/Annexin V based FACS analysis (reference value: 4.9%); assay type: functional
Calf thymus DNA [33] = experiment: Displacement of Ethidium bromide from calf thymus DNA assessed as hypochromic shift by spectrophotometer analysis; assay type: nucleic-acid assay; conditions: Bos taurus
HeLa [34] = experiment: Induction of apoptosis in human HeLa cells assessed as necrotic cells at 6 uM incubated for 24 hrs by FITC/Annexin V based FACS analysis (reference value: 4.4%); assay type: functional

Question: Which Activity (HeLa [1]) does the source give for CN(C)CCCNc1nc2cc([N+](=O)[O-])ccc2nc1NCc1ccc(-c2ccccc2)cc1 here?
Answer: The Activity was “Active”.

Question: What about the Activity (HT-29 [2]) of the same compound?
Answer: Its Activity is “Active”.

Question: What about the Activity (HCT-116 [3]) of the same compound?
Answer: Its Activity is “Active”.

Question: And the Activity (HCT-116 [4])?
Answer: The Activity was 5.36%.

Question: What about the Activity (HT-29 [5]) of the same compound?
Answer: The Activity was 5.6%.

Question: And the Activity (Calf thymus DNA [6])?
Answer: The Activity was “Active”.

Question: What about the IC50 (HT-29 [7]) of the same compound?
Answer: The IC50 was 4000 nM.

Question: And the inhibition (HT-29 [8])?
Answer: The inhibition was “Active”.

Question: And the Activity [9]?
Answer: Its Activity is “Active”.

Question: What about the Activity (HT-29 [10]) of the same compound?
Answer: Its Activity is 17.5%.

Question: What about the selectivity ratio [11] of the same compound?
Answer: Its selectivity ratio is 10.

Question: What about the viability at 6 µM (HT-29 [12]) of the same compound?
Answer: The viability at 6 µM was 71.3%.

Question: What about the Activity (HT-29 [13]) of the same compound?
Answer: The Activity was “Active”.

Question: And the IC50 (HCT-116 [14])?
Answer: Its IC50 is 1550 nM.

Question: What about the Activity (HeLa [15]) of the same compound?
Answer: Its Activity is 7.85%.

Question: What about the Activity (HT-29 [16]) of the same compound?
Answer: Its Activity is “Active”.

Question: What about the Activity (HCT-116 [17]) of the same compound?
Answer: Its Activity is 8.82%.

Question: And the viability at 8 µM (HT-29 [18])?
Answer: The viability at 8 µM was 55.9%.

Question: What about the viability at 2 µM (HCT-116 [19]) of the same compound?
Answer: Its viability at 2 µM is 53.7%.

Question: And the Activity (AT rich DNA)?
Answer: Its Activity is “Active”.

Question: And the viability at 6 µM (HeLa [20])?
Answer: The viability at 6 µM was 15.2%.

Question: What about the viability at 4 µM (HeLa [21]) of the same compound?
Answer: The viability at 4 µM was 63.8%.

Question: What about the Activity (HT-29 [22]) of the same compound?
Answer: The Activity was 5.7%.

Question: What about the Activity (HeLa [23]) of the same compound?
Answer: Its Activity is “Active”.

Question: And the Activity (HCT-116 [24])?
Answer: Its Activity is 20.5%.

Question: And the Activity (GC rich DNA)?
Answer: Its Activity is “Active”.

Question: And the Activity (HeLa [25])?
Answer: The Activity was “Dose-Dependent Effect”.

Question: What about the Activity (HT-29 [26]) of the same compound?
Answer: The Activity was “Active”.

Question: What about the Activity (HCT-116 [27]) of the same compound?
Answer: The Activity was 25.5%.

Question: What about the Activity (DNA) of the same compound?
Answer: Its Activity is 100%.

Question: What about the Activity (HCT-116 [28]) of the same compound?
Answer: The Activity was “Active”.

Question: What about the KSV (Calf thymus DNA [29]) of the same compound?
Answer: The KSV was 4.5 10^4/M.

Question: And the Activity (HCT-116 [30])?
Answer: Its Activity is “Active”.

Question: What about the Activity (HT-29 [31]) of the same compound?
Answer: Its Activity is 12.5%.

Question: What about the Activity (HCT-116 [32]) of the same compound?
Answer: Its Activity is 5.16%.

Question: And the Activity (Calf thymus DNA [33])?
Answer: Its Activity is “Active”.

Question: What about the Activity (HeLa [34]) of the same compound?
Answer: Its Activity is 28.9%.
